From PMC11003968, “Identification of small molecules affecting the interaction between human hemoglobin and Staphylococcus aureus IsdB hemophore” (Scientific Reports, 2024)
Converted amounts (≈) assume the structure as drawn. “Also recorded” adds a separate entry of the source. Read-outs that look alike come from different tables or passages of the source. Where a SMILES comes first, the peptide text is derived from it. The star is where a group is joined. Boc = CC(C)(C)OC(=O)*

Tests used:
Compound solubilisation = type: physicochemical; conditions: for solubility (in words): solvent as stated in the sentence
Procedure: The commercial compounds were solubilized in aqueous solutions to reach a 50 mM concentration, taking advantage of the pH and concentration-solubility profile estimated by Chemicalize (https://chemicalize.com/ developed by ChemAxon). When the molecules resulted partially or completely insoluble, the pH was adjusted based on their estimated pH-solubility profiles using either HCl or NaOH concentrated stocks. A cycle of sonication with an ultrasonic bath (Bormac CE-5700, 41300303) was performed for those compounds that resulted insoluble after pH adjustment. If sonication was insufficient, compounds were also heated in a thermoblock at 60 °C for ten minutes. For the compounds that were still not soluble, D6-DMSO was added. For some compounds, complete solubilization required to decrease the concentration of the stock solution. In Table 2 are reported the compounds that required dilution and/or addition of DMSO for solubilization.
(§1) The in-house synthesized compounds were solubilized at 100 mM concentration in D6-DMSO. We indicated with an asterisk (*) the in-house synthesized compounds to distinguish them from the commercial ones. […]. Molecules that resulted partially or completely insoluble were subjected to the same procedure followed for the commercial molecules, except for pH adjustments. The compounds that were highly insoluble were produced as TRIS salts.

[1] = target: T1, IsdB:Hb complex (Y165A IsdB, oxyHb) (Homo sapiens, UniProt P68871+P69905); experiment: IsdB-based immunoassay for IsdB:Hb complex formation (screening of potential inhibitors); type: binding, Staphylococcus aureus IsdB; human Hb; conditions: 30 µM oxyHb; for average percent of Hb bound to IsdB: commercial compounds at 1 mM, relative to negative control; for percentage of IsdB-bound Hb: in-house synthesized compounds at 1 mM
T1 construct: made in house
Procedure: Commercial and synthesized compounds were tested at 1 mM concentration.
Figure 6 Screening of the in silico identified compounds by the IsdB-based immunoassay. […] The lines at 100% and 50%, drawn as reference, were calculated from the absorbance signal at 450 nm measured on the negative control well (i.e. oxyHb incubated without the addition of compounds). Each measurement is the average of at least 2 replicates.
Each measurement is the average of at least two replicates. […] Color code indicates derivatives from a common parent compound indicated with the asterisk.

HbCO = HbCO (Homo sapiens, UniProt P68871+P69905); experiment: STD-NMR binding to Hb; conditions: 20 µM Hb (heme), 25 °C; for quality of the peaks in the STD spectrum: 1 mM commercial compound; for binding to HbCO by STD-NMR (peaks in STD spectra): 1 mM compound
oxyHb = oxyHb (Homo sapiens, UniProt P68871+P69905); experiment: Effect of compounds on the oxyHb absorption spectrum (oxidation of oxyHb to metHb); type: biochemical; conditions: 1 mM compound, 10 µM oxyHb, 4 °C
Procedure: Absorption spectra of the commercial compounds alone or in the presence of oxyHb were recorded with a microplate reader (TECAN Spark® 10 M) in a 384-well, UV-transparent microplate (Greiner UV-STAR® plate—781801). The compounds were diluted in binding buffer to a 2 mM concentration, and the pH of the solutions was adjusted in the range 6.5–7.5. Compounds were then tested at 1 mM concentration to assess for any absorbance around 450 nm that might interfere with the immunoassay. The effect of compounds on the oxyHb spectrum was assessed under the same conditions in the presence of 10 µM oxyHb. […] All the incubation steps were performed at 4 °C, as in the immunoassay. Spectra were subtracted from the contribution of the blank and the compound.
Absorption spectra of the compounds in solution were collected between 350 and 700 nm to exclude any interference with the determination of Hb oxidation (vide infra) and with the absorbance measurement at 450 nm of the immunoassay (Fig. S4). The absorption spectra of Hb solutions were collected in the Q bands region, between 450 and 650 nm, and compounds were added at a final concentration of 1 mM and incubated for 2 h at 4 °C, before the acquisition of the final spectrum (Fig. S5). These Hb absorption bands are sensitive to the redox status of the protein and thus allowed to ascertain whether the tested compounds interfere with the analysis by accelerating the oxidation of oxyHb to metHb, which in turn is susceptible to heme extraction by IsdB, thus introducing an artifact in the assay.

[2] = Stability of dissolved compound by NMR and liquid chromatography; type: physicochemical
Procedure: as §1

[3] = 50% D6-DMSO final concentration

SMILES: O=C(CSc1nnc(-c2c[nH]c3ncccc23)o1)Nc1ccc(C(=O)O)cc1 [Compound C63]
- solubility (in words) (Compound solubilisation): poorly soluble

SMILES: Cn1cc(-c2nnc(SCC(=O)Nc3ccc(C(=O)O)cc3)o2)c2ccccc21 [Compound C61]
- solubility (in words) (Compound solubilisation): poorly soluble

SMILES: O=C(O)Cn1cc(-c2nnc(SCC(=O)Nc3ccc(C(=O)O)cc3)o2)c2ccccc21 [Compound C65]
- solubility (in words) (Compound solubilisation): poorly soluble

SMILES: NC(=O)NC(=O)CCCSc1nnc(N)s1 [Compound C44]
- average percent of Hb bound to IsdB [1]: lower than 55%
- percentage of IsdB-bound Hb [1]: above 60%
- quality of the peaks in the STD spectrum (HbCO): very weak peaks
- binding to HbCO by STD-NMR (peaks in STD spectra) (HbCO): gave peaks in the STD spectra
- Stock H2O (Compound solubilisation; [3]): 44 (50% D6-DMSO final concentration) mM
- solubility (in words) (Compound solubilisation): solubility issues
- solubility (in words) (Compound solubilisation; listed as C44*): difficult to dissolve in DMSO

SMILES: CC(C)CC(NC(=O)C(Cc1ccccc1)NC(=O)CNC(=O)CNC(=O)OC(C)(C)C)C(=O)NC(CCCN=C(N)N)C(=O)O (centres unmarked) [Compound C28] (Boc-GGFLR-OH; configuration not given here)
- oxidation of Hb upon a 2-h incubation (oxyHb): small effects
- Stock H2O (Compound solubilisation; [3]): 25 (50% D6-DMSO final concentration) mM

SMILES: CC(C)(Sc1nnc(-c2c[nH]c3ccccc23)o1)C(=O)Nc1ccc(C(=O)O)cc1 [Compound C59]
- solubility (in words) (Compound solubilisation): poorly soluble

SMILES: NC(=O)C1CCN(CC(O)COc2ccc(OCC(O)CN3CCC(C(N)=O)CC3)cc2)CC1 (centres unmarked) [Compound C12]
- oxidation of Hb upon a 2-h incubation (oxyHb): small effects

SMILES: NC(=O)COc1ccc(CNC2CCCN(c3cccnn3)C2)cc1 (centres unmarked) [Compound C50]
- average percent of Hb bound to IsdB [1]: lower than 55%
- binding to HbCO by STD-NMR (peaks in STD spectra) (HbCO): no peaks were observed

SMILES: NC(=O)Cn1cc(NC(=O)NC2CCC(O)CC2)cn1 (centres unmarked) [Compound C34]
- Stock H2O (Compound solubilisation): 33 (50% D6-DMSO final concentration) mM

SMILES: NNC(=O)C(=NNc1ccccc1C(=O)NN)C(=O)NN [Compound C17]
- oxidation of Hb upon a 2-h incubation (oxyHb): small effects
- Stock H2O (Compound solubilisation; [3]): 25 (50% D6-DMSO final concentration) mM

SMILES: COC(=O)c1[nH]n(-c2ccc(C(=O)O)cc2)c(=O)c1CCO [Compound C53]
- average percent of Hb bound to IsdB [1]: lower than 55%
- percentage of IsdB-bound Hb [1]: above 60%
- quality of the peaks in the STD spectrum (HbCO): very weak peaks
- binding to HbCO by STD-NMR (peaks in STD spectra) (HbCO): gave peaks in the STD spectra
- binding to HbCO by STD-NMR (peaks in STD spectra) (HbCO; listed as C53*): confirmed binding to HbCO
- solubility (in words) (Compound solubilisation): solubility issues

SMILES: Cc1[nH]ncc1C(=O)NCc1cc(OC2CCNC2)ccn1 (centres unmarked) [Compound C41]
- average percent of Hb bound to IsdB [1]: lower than 55%
- quality of the peaks in the STD spectrum (HbCO): very weak peaks
- binding to HbCO by STD-NMR (peaks in STD spectra) (HbCO): gave peaks in the STD spectra; also recorded: only a methyl group was binding to Hb

SMILES: O=C(CSc1nnc(-c2c[nH]c3ccccc23)o1)Nc1ccc(C(=O)O)cc1 [Compound C35]
- stability by NMR and liquid chromatography ([2]; dissolved in D6-DMSO): stable
- stability in solution ([2]; dissolved in alkaline aqueous solution): underwent a rearrangement
- solubility (Compound solubilisation; aqueous buffer, kinetic from dmso stock, 50 mM HEPES buffer, pH 7.6, diluted from 100 mM DMSO stock, read-out: concentration at which the compound was soluble): 500 µM (≈ 197 µg/mL)
- solubility (in words) (Compound solubilisation): poorly soluble in water
